Reference: publication PMC11589101, “Profiling the endocrine-disrupting properties of triazines, triazoles, and short-chain PFAS” (Toxicological Sciences, 2024)
Where two headings read alike, the source gives them in different places.

Key:
[1] = biological target: T1, human transthyretin (TTR) (Homo sapiens, UniProt P02766); assay: FITC-T4 TTR-binding assay, initial (original) method; settings: for IC10 competing with FITC-T4 for binding to TTR / IC50: initial method, 110 nM FITC-T4, 30 nM TTR; for IC50: read-out: IC50 competing with FITC-T4 for binding to TTR
Description: (§1) All incubations were performed at room temperature.
(§2) Fluorescence enhancement was determined for each well by subtracting its relative fluorescence units (RFU) before TTR addition from its RFUs after TTR addition. The resulting values were normalized to percentages of the vehicle control. A concentration–response curve was fitted through the data using the same model as in the reporter gene assays.
After 15 min of incubation, fluorescence was measured and fluorescence enhancement was calculated by subtracting RFU without TTR from RFU with TTR. Further data analysis was similar to the screening assays.

[2] = biological target: T1, human transthyretin (TTR); assay: FITC-T4 TTR-binding assay, screening method; settings: screening method; read-out: IC50 TTR-binding assay, Screening Method
Description: as §1
In the screening tests, 48 μl of Tris-HCl buffer (pH 8.0) was added to each well of black low-binding 96-well plates. Two microliters of each test compound dissolved in their respective solvent was added to each well and the plate was shaken at 600 rpm for 5 min. […] Fluorescence was measured again to check for possible autofluorescence or quenching by the test compound.
as §2

[3] = test system: steroidogenesis in H295R cells; assay type: cell-based, human; settings: for 11 deoxycorticosterone mean fold change / 17aOH progesterone mean fold change / 17b E2 mean fold change / E1 mean fold change / androstenedione mean fold change / corticosterone mean fold change / cortisol mean fold change / testosterone mean fold change: H295R
Description: All experiments were performed using cells in passages 5 to 10. First, the highest noncytotoxic concentration (<10% decrease in viability) was determined for each compound with MTT assays. Next, the levels of 13 steroid hormones were determined in the medium after exposure of the H295R cells to the highest noncytotoxic concentration using LC-MS/MS. These concentrations were tested in triplicate (n = 3) in 3 independent experiments (N = 3), and all 9 samples were measured in LC-MS/MS. […] These dilution series were tested in 3 independent experiments (N = 3), with triplicate exposures in each of these experiments (n = 3). Supernatants of the triplicate exposures per experiment were pooled after the 48 h of exposure and the 3 pooled samples were measured with LC-MS/MS. This was done to keep the number of LC-MS/MS measurements manageable.
The exposure medium was prepared by diluting stock solutions 1,000× in the cell culture medium to obtain a final concentration of 0.1% of the solvent. Exposure was started by replacing cell culture medium with the exposure medium. […] On a separate quality control plate, cells were exposed to 10 μM forskolin (Sigma-Aldrich) and 1 μM prochloraz (Sigma-Aldrich) to serve as positive control for increased and decreased steroid hormone secretion, respectively. Exposure was started by replacing the culture medium in the cell culture plates with the exposure medium.
After 48 h of exposure, the supernatant medium from each well was transferred to the wells of a clean 48-well plate, and that plate was stored at −80 °C for later steroid measurement. MTT assays were performed by adding 500 μl of 0.5 mg/ml MTT (3-(4,5-dimethylthiazol-2-yl)-2,5-diphenyltetrazolium bromide; Sigma-Aldrich) solution in medium to each well of the 24-well cell culture plate and incubating for 1 h at 37 °C with 5% CO2. After incubation, the MTT solution was discarded and 500 μl of DMSO was added to each well to lyse the cells and dissolve the formazan crystals. Plates were shaken at 700 rpm for 10 min and absorbance was measured at 560 nm wavelength.
Hormones were concentrated from supernatants by solid phase extraction using Bond Elut Plexa cartridges, 30 mg sorbent, 1.8 ml (Agilent Technologies, Santa Clara, CA, United States). The cartridges were conditioned with 1 ml of 0.5% formic acid in methanol, and subsequent addition of 1 ml of 0.5% formic acid in water. A mix of 100 μl of H295R medium sample in 1 ml of 2% formic acid in water and 50 μl of isotopically labeled internal standards mix (Table S1) was loaded on the cartridges. These were then washed with 1 ml of water followed by 1 ml of water–methanol mixture (70:30, v/v). Cartridges were dried by vacuum and the hormones were eluted with 700 μl of methanol into 96-well-deep well polypropylene plates. Eluates were evaporated to dryness during approximately 2 h in a refrigerated CentriVap vacuum concentrator and reconstituted in 150 μl of water–methanol mixture (1:1, v/v). Additionally, a serial 12-point dilution series of a mix of native steroid hormones was prepared to fit a calibration curve in order to quantify steroid concentrations.
The steroid hormones were separated prior to MS measurements on a Kinetex C18 LC Column (2.6 μm, 100 × 2.1 mm; Phenomenex, CA, United States) coupled to an Exion LC system (SCIEX, Framingham, MA, United States). The mobile phase consisted of 0.2 mM NH4F in water and pure methanol and was delivered at a flow rate of 0.6 ml/min in a gradient elution mode. The injection volume was 10 μl.
The LC-MS/MS raw data were processed using AB Sciex OS Analyst version 1.6.2 (SCIEX, Framingham, MA, United States) to calculate fold changes by dividing the measured hormone concentrations by the hormone concentrations in the vehicle controls. The fold changes were used to fit a concentration–response curve in GraphPad Prism using the same model as in the reporter gene assays, and the ECIR1.5 was estimated for each compound.

SMILES: O=S(=O)(O)C(F)(F)C(F)(F)C(F)(F)C(F)(F)F [PFBS, Perfluorobutane sulfonic acid]
- % FITCT4 bound to TTR ([1]; 0.1 uM): 97.3072%
- % FITCT4 bound to TTR ([1]; 0.3 uM): 93.7406%
- % FITCT4 bound to TTR ([1]; 1 uM): 89.6282%
- % FITCT4 bound to TTR ([1]; 3 uM): 73.6529%
- % FITCT4 bound to TTR ([1]; 10 uM): 44.4619%
- % FITCT4 bound to TTR ([1]; 30 uM): 21.5802%
- % FITCT4 bound to TTR ([1]; 100 uM): 11.5263%
- IC10 competing with FITC-T4 for binding to TTR [1]: 0.82 µM
- IC50 [1]: 8.3 µM
- IC50 [2]: 8.2 µM

SMILES: CCNc1nc(Cl)nc(NC(C)C)n1 [Atrazine]
- 11 deoxycorticosterone mean fold change ([3]; concentration 0.3 uM): 1.225 fold change
- 17aOH progesterone mean fold change ([3]; concentration 0.3 uM): 1.062 fold change
- 17b E2 mean fold change ([3]; concentration 0.3 uM): 1.11 fold change
- E1 mean fold change ([3]; concentration 0.3 uM): 0.9324 fold change
- androstenedione mean fold change ([3]; concentration 0.3 uM): 1.124 fold change
- corticosterone mean fold change ([3]; concentration 0.3 uM): 1.264 fold change
- cortisol mean fold change ([3]; concentration 0.3 uM): 1.18 fold change
- testosterone mean fold change ([3]; concentration 0.3 uM): 1.092 fold change
- 11 deoxycorticosterone mean fold change ([3]; concentration 1 uM): 1.279 fold change
- 17aOH progesterone mean fold change ([3]; concentration 1 uM): 1.128 fold change
- 17b E2 mean fold change ([3]; concentration 1 uM): 1.2477 fold change
- E1 mean fold change ([3]; concentration 1 uM): 1.144 fold change
- androstenedione mean fold change ([3]; concentration 1 uM): 1.188 fold change
- corticosterone mean fold change ([3]; concentration 1 uM): 1.609 fold change
- cortisol mean fold change ([3]; concentration 1 uM): 1.21 fold change
- testosterone mean fold change ([3]; concentration 1 uM): 1.129 fold change
- 11 deoxycorticosterone mean fold change ([3]; concentration 3 uM): 1.291 fold change
- 17aOH progesterone mean fold change ([3]; concentration 3 uM): 1.151 fold change
- 17b E2 mean fold change ([3]; concentration 3 uM): 1.487 fold change
- E1 mean fold change ([3]; concentration 3 uM): 1.415 fold change
- androstenedione mean fold change ([3]; concentration 3 uM): 1.193 fold change
- corticosterone mean fold change ([3]; concentration 3 uM): 1.535 fold change
- cortisol mean fold change ([3]; concentration 3 uM): 1.258 fold change
- testosterone mean fold change ([3]; concentration 3 uM): 1.198 fold change
- 11 deoxycorticosterone mean fold change ([3]; concentration 10 uM): 1.493 fold change
- 17aOH progesterone mean fold change ([3]; concentration 10 uM): 1.43 fold change
- 17b E2 mean fold change ([3]; concentration 10 uM): 2.183 fold change
- E1 mean fold change ([3]; concentration 10 uM): 2.232 fold change
- androstenedione mean fold change ([3]; concentration 10 uM): 1.47 fold change
- corticosterone mean fold change ([3]; concentration 10 uM): 2.296 fold change
- cortisol mean fold change ([3]; concentration 10 uM): 1.583 fold change
- testosterone mean fold change ([3]; concentration 10 uM): 1.47 fold change
- 11 deoxycorticosterone mean fold change ([3]; concentration 30 uM): 1.712 fold change
- 17aOH progesterone mean fold change ([3]; concentration 30 uM): 1.877 fold change
- 17b E2 mean fold change ([3]; concentration 30 uM): 2.732 fold change
- E1 mean fold change ([3]; concentration 30 uM): 3.048 fold change
- androstenedione mean fold change ([3]; concentration 30 uM): 1.542 fold change
- corticosterone mean fold change ([3]; concentration 30 uM): 2.489 fold change
- cortisol mean fold change ([3]; concentration 30 uM): 1.7 fold change
- testosterone mean fold change ([3]; concentration 30 uM): 1.645 fold change
- 11 deoxycorticosterone mean fold change ([3]; concentration 100 uM): 2.107 fold change
- 17aOH progesterone mean fold change ([3]; concentration 100 uM): 2.139 fold change
- 17b E2 mean fold change ([3]; concentration 100 uM): 2.968 fold change
- E1 mean fold change ([3]; concentration 100 uM): 3.994 fold change
- androstenedione mean fold change ([3]; concentration 100 uM): 1.612 fold change
- corticosterone mean fold change ([3]; concentration 100 uM): 3.324 fold change
- cortisol mean fold change ([3]; concentration 100 uM): 2.203 fold change
- testosterone mean fold change ([3]; concentration 100 uM): 1.74 fold change
- effect on steroid hormone levels compared with vehicle-treated controls ([3]; highest noncytotoxic exposure concentration, 48 h): increased levels of progestogens, androgens, estrogens, and corticosteroids

SMILES: NC(Cc1cc(I)c(Oc2cc(I)c(O)c(I)c2)c(I)c1)C(=O)O (centres unmarked) [T4, thyroxine, reference compound]
- IC10 competing with FITC-T4 for binding to TTR [1]: 0.0024 µM

SMILES: O=C(O)C(F)(OC(F)(F)C(F)(F)C(F)(F)F)C(F)(F)F (centres unmarked) [GenX, Hexafluoropropylene oxide dimer acid]
- % FITCT4 bound to TTR ([1]; 0.1 uM): 92.2482%
- % FITCT4 bound to TTR ([1]; 0.3 uM): 91.7718%
- % FITCT4 bound to TTR ([1]; 1 uM): 89.1133%
- % FITCT4 bound to TTR ([1]; 3 uM): 86.8896%
- % FITCT4 bound to TTR ([1]; 10 uM): 74.6529%
- % FITCT4 bound to TTR ([1]; 30 uM): 53.6966%
- % FITCT4 bound to TTR ([1]; 100 uM): 24.7329%
- IC10 competing with FITC-T4 for binding to TTR [1]: 1.9 µM
- IC50 [1]: 31.9 µM
- IC50 [2]: 30.3 µM

SMILES: O=C(O)C(F)(F)C(F)(F)C(F)(F)C(F)(F)C(F)(F)C(F)(F)C(F)(F)F [PFOA, Perfluorooactanoic acid]
- % FITCT4 bound to TTR ([1]; 0.1 uM): 82.1607%
- % FITCT4 bound to TTR ([1]; 0.3 uM): 45.526%
- % FITCT4 bound to TTR ([1]; 1 uM): 17.6477%
- % FITCT4 bound to TTR ([1]; 3 uM): 6.188%
- % FITCT4 bound to TTR ([1]; 10 uM): 2.364%
- % FITCT4 bound to TTR ([1]; 30 uM): 0.3274%
- % FITCT4 bound to TTR ([1]; 100 uM): 0.2557%
- IC10 competing with FITC-T4 for binding to TTR [1]: 0.053 µM
- IC50 [1]: 0.28 µM
- IC50 [2]: 0.28 µM
